Reference: patent publication US8841324B2, “Heterocyclic compounds as autotaxin inhibitors” (Merck Patent GmbH, priority 2009, dated 2014)

Molecular target: T1, recombinant autotaxin (Homo sapiens, UniProt Q13822)
T1 construct: made in house; host or cells: Hi5 insect cells (baculovirus)
Test: Autotaxin test (enzyme test), Amplex Red fluorescence readout
Type: biochemical
Conditions: Autotaxin inhibition (enzyme test); substrate LPC 75 μM, 37° C. for 90 min
Procedure: Pharmacological Data Autotaxin Inhibition (Enzyme Test)
Autotaxin Test (Enzyme Test)
The autotaxin activity is measured indirectly using Amplex Red reagent. Amplex Red is measured here as fluorogenic indicator for the H2O2 formed. In detail, autotaxin converts the substrate lysophosphatidylcholine (LPC) into phosphocholine and lysophosphatidylic acid (LPA). After this reaction, the phosphocholine is reacted with alkaline phosphatase to give inorganic phosphate and choline. In the next step, choline is oxidised by choline oxidase to give betaine, with formation of H2O2. H2O2 reacts with Amplex Red reagent in the presence of peroxidase (horseradish peroxidase) in a 1:1 stoichiometry and forms the highly fluorescent resorufin. The fluorescence is measured in a reaction-dependent kinetic mode in order that fluorescent signals from possible other fluorescent substances which are not involved in the reaction can be corrected out.
1.5 μl of a standard solution or of the test substances (substances with the name A(n)) in individual concentrations dissolved in 20 mM Hepes pH 7.2 with a maximum of 7.7% of DMSO are pre-incubated together with 10 μl (16 ng) of highly purified recombinant autotaxin in a black microtitre plate provided with 384 wells at 22° C. for 30 min. The reaction is then initiated by addition of 5 μl of L-α-lysophosphatidylcholine (LPC), where the final concentration of LPC is 75 μM. The mixture is incubated at 37° C. for 90 min. After the incubation, Amplex Red reagent, peroxidase (horseradish peroxidase) and choline oxidase is added, and the fluorescence is immediately measured at 612 nm with excitation of 485 nm in a “Tecan Ultra multimode” reader. The activity of autotaxin is calculated indirectly via detection of the H2O2 formed.
• Microtitre plate: PS microplate, 384 wells, small volume, black Corning, Cat#3677 • Protein: recombinant autotaxin (Baculovirale Hi5 Expression) • Substrate: L-α-lysophosphatidylcholine (chicken egg)); Avanti Polar Lipids #830071P • Standard: C14 LPA, Avanti Polar Lipids, Cat#857120P • Detection reagent: Amplex Red reagent; Invitrogen # A12222; dissolved in 1.923 ml of DMSO peroxidase type VI-A (horseradish) from Sigma # P6782; dissolved in 7.45 ml of test buffer, choline oxidase; Sigma # C5896; dissolved in 2.47 ml of test buffer • Detection reagent mix: 1:100 dilution of Amplex Red reagent in test buffer • Test buffer: 200 mM Tris HCl, Merck, Cat #1.08219, pH 7.9, 0.1% of BSA, lipid-free, Roche Cat#775835

| IC50 | SMILES |
| --- | --- |
| > 1000 nM | O=C(OCc1cc(Cl)cc(Cl)c1)N1CCN(CCN2CCC(c3ccc4[nH]c(=O)oc4c3)=N2)CC1 [Compound 21, 3,5-dichlorobenzyl 4-{2-[3-(2-oxo-2,3-dihydrobenzoxazol-6-yl)-4,5-dihydropyrazol-1-yl]ethyl}piperazine-1-carboxylate] |
| 100 to 1000 nM | O=C(OCc1ccc(Cl)cc1)N1CCN(CCC(F)(F)c2ccc3[nH]c(=O)oc3c2)CC1 [Compound 17, 4-chlorobenzyl 4-[3,3-difluoro-3-(2-oxo-2,3-dihydrobenzoxazol-6-yl)propyl]piperazine-1-carboxylate] |
| > 1000 nM | O=C(CN1CCC(NC(=O)OCc2cc(Cl)cc(Cl)c2)C1)Nc1ccc2[nH]nnc2c1 (stereo not drawn) [Compound A16, 3,5-Dichlorobenzyl {1-[(1H-benzotriazol-5-yl-carbamoyl)methyl]pyrrolidin-3-yl}crbamate] |
| > 1000 nM | O=C(CCCN1CCN(C(=O)OCc2ccc(Cl)cc2)CC1)Nc1ccc2[nH]nnc2c1 [Compound A14, 4-Chlorobenzyl 4-[3-(1H-benzotriazol-5-yl-carbamoyl)propyl]piperazine-1-carboxylate] |
| > 1000 nM | O=C(NCCN1CCN(C(=O)OCc2ccc(C(F)(F)F)cc2)CC1)c1ccc2[nH]nnc2c1 [Compound A2, 4-Trifluoromethylbenzyl 4-{2-[(1H-benzotriazole-5-carbonyl)amino]ethyl}piperazine-1-carboxylate] |
| > 1000 nM | O=C(CCNC(=O)N1CCN(C(=O)OCc2ccc(Cl)cc2)CC1)Nc1ccc2[nH]nnc2c1 [Compound 33, 4-chlorobenzyl 4-[2-(1H-benzotriazol-5-ylcarbamoyl)ethyl-carbamoyl]piperazine-1-carboxylate] |
| > 1000 nM | O=C(CN1CCN(C(=O)OCc2ccc(Cl)cc2)CC1)Nc1ccc2[nH]c(=O)oc2c1 [Compound A8, 4-Chlorobenzyl 4-[(2-oxo-2,3-dihydrobenzoxazol-6-ylcarbamoyl)methyl]piperazine-1-carboxylate] |
| > 1000 nM | O=C(CN1CCN(C(=O)CCOc2ccc(Cl)cc2)CC1)c1ccc2[nH]c(=O)oc2c1 [Compound 27, 6-(2-{4-[3-(4-chlorophenoxy)propionyl]piperazin-1-yl}acetyl)-3H-benzoxazol-2-one] |
| > 1000 nM | O=C(OCc1cc(Cl)cc(Cl)c1)N1CCN(CC(O)c2ccc3[nH]c(=O)oc3c2)CC1 (stereo not drawn) [Compound A18, 3,5-Dichlorobenzyl 4-[2-hydroxy-2-(2-oxo-2,3-dihydrobenzoxazol-6-yl)ethyl]piperazine-1-carboxylate] |
| 100 to 1000 nM | O=C(CC(=O)NC1CCN(C(=O)OCc2ccc(Cl)cc2)CC1)Nc1ccc2[nH]nnc2c1 [Compound 39, 4-chlorobenzyl 4-[2-(1H-benzotriazol-5-ylcarbamoyl)acetylamino]piperidine-1-carboxylate] |
| > 1000 nM | O=C(Cc1ccc2[nH]nnc2c1)N1CCN(C(=O)OCc2ccc(Cl)cc2)CC1 [Compound 24, 4-chlorobenzyl 4-(2-1H-benzotriazol-5-ylacetyl)piperazine-1-carboxylate] |
| > 1000 nM | O=C(Nc1ccc2[nH]c(=O)oc2c1)C(c1ccccc1)N1CCN(C(=O)OCc2ccc(Cl)cc2)CC1 (stereo not drawn) [Compound A10, 4-Chlorobenzyl 4-[(2-oxo-2,3-dihydrobenzoxazol-6-ylcarbamoyl)phenylmethyl]piperazine-l-carboxylate] |
| 100 to 1000 nM | O=C(OCc1cc(Cl)cc(Cl)c1)N1CCN(CCC(O)c2ccc3[nH]c(=O)oc3c2)CC1 (stereo not drawn) [Compound 13, 3,5-dichlorobenzyl 4-[3-hydroxy-3-(2-oxo-2,3-dihydrobenzoxazol-6-yl)propyl]piperazine-1-carboxylate] |
| 100 to 1000 nM | O=C(NCCN1CCN(C(=O)OCc2cc(Cl)cc(Cl)c2)CC1)c1ccc2[nH]nnc2c1 [Compound A1, 3,5-Dichlorobenzyl 4-{2-[(1H-benzotriazole-5-carbonyl)amino]ethyl}piperazine-1-carboxylate] |
| 100 to 1000 nM | O=C(CNC1CCN(C(=O)OCc2cc(Cl)cc(Cl)c2)CC1)Nc1ccc2[nH]c(=O)oc2c1 [Compound 11, 3,5-dichlorobenzyl 4-{[(2-oxo-2,3-dihydrobenzoxazol-6-ylcarbamoyl)methyl]amino}piperidine-1-carboxylate] |
| > 1000 nM | O=C(NC1[C@H]2CN(C(=O)OCc3cc(Cl)cc(Cl)c3)C[C@@H]12)c1ccc2nn[nH]c2c1 (stereo partly drawn) [Compound A17, 3,5-Dichlorobenzyl (1R,5S)-6-[(3H-benzotriazole-5-carbonyl)amino]-3-azabicyclo[3.1.0]hexane-3-carboxylate] |
| > 1000 nM | O=C(CCN1CCN(C(=O)OCc2ccc(Cl)cc2)CC1)Nc1ccc2[nH]c(=O)oc2c1 [Compound A13, 4-Chlorobenzyl 4-[2-(2-oxo-2,3-dihydrobenzoxazol-6-ylcarbamoyl)ethyl]piperazine-1-carboxylate] |
| > 1000 nM | O=C(NCCN1CCN(C(=O)OCc2ccc(Cl)cc2F)CC1)c1ccc2[nH]nnc2c1 [Compound A3, 4-Chloro-2-fluorobenzyl 4-{2-[(1H-benzotriazole-5-carbonyl)amino]ethyl}piperazine-1-carboxylate] |
